Patent US20140135272A1, “NOVEL ZINC FINGER-LIKE PEPTIDE COMPOSITIONS AS POTENT AGENTS IN CANCER PREVENTION AND TREATMENT” (priority 2011, published 2014)
Entries after “also recorded” stand apart in the source; their conditions may differ. Square brackets hold non-standard residues; d marks the D form. Ends that are not written are not given here. pS = N[C@@H](COP(=O)(O)O)C(=O)O

Legend:
Format in all cases: in vivo, nude mice
[1] = test system: malignant melanoma B 16F10; test: Example 4: peptide variants pre-injected, then malignant melanoma B16F10 inoculation, tumor volumes and death; conditions: peptide 2 mM, 100 μl i.v. per week for 2 weeks before B16F10 inoculation
Method: (§1) In the following examples, 8-week nude mice were used as host subjects to perform in vivo experiments. The nude mice were placed in room temperature and suitable humidity, and supplied with sterile water and standard food for 2 consecutive weeks before performing experiments. Then, the nude mice were injected with zinc finger-like peptide and tumor cells. The detailed processes for the experiments are described as follows.
(§2) First, manually synthesized zinc finger-like peptide (Genemed Synthesis Inc., San Antonio, Tex., USA) was resuspended in degassed purified water to obtain 1-5 mM of zinc finger-like peptide solution (100 μl). Herein, the solution for suspending the zinc finger-like peptide is not particularly limited. Preferably, the zinc finger-like peptide is resuspended in degassed purified water, in order to prevent the self-polymerization of the zinc finger-like peptide and loss its ability to inhibit tumor cell growth.
Nude mice received an intravenous injection of peptide (2 mM, 100 μl) via tail veins per week for 2 consecutive weeks, followed by inoculating malignant melanoma B 16F10 (2 million cells/100 μl PBS) at both the right and left flanks. The tumor volumes (mm^3) were observed daily during the whole experiment.
(§3) In the present experimental group, zinc finger-like peptide with sequence shown in SEQ ID NO: 1 was injected into nude mice.
In the present experimental group, zinc finger-like peptide with sequence shown in SEQ ID NO: 1, in which the fifth amino acid, serine was phosphorylated, and injected into nude mice.
In the present experimental group, zinc finger-like peptide with sequence shown in SEQ ID NO: 6 was injected into nude mice.
In the present experimental group, zinc finger-like peptide with sequence shown in SEQ ID NO: 6, in which the fourth amino acid serine was phosphorylated, and injected nude mice.
In the control group, H2O (100 μl) was injected into nude mice.

[2] = test system: breast carcinoma MDA-MB-435s; test: Example 8: breast carcinoma MDA-MB-435s inoculated first, peptide treatment from the 70th day, tumor volumes; conditions: peptide 2 mM, 100 μl per week for 4 weeks from the 70th day
Method: as §1, §2
In the present experimental group, zinc finger-like peptide with sequence shown in SEQ ID NO: 2 was injected subcutaneously into nude mice.
Nude mice received an injection of breast carcinoma MDA-MB-435s (2 million cells/100 μl PBS) […] at both the right and left flanks on the […] day, followed by injecting peptide (2 mM, 100 μl) per week for 4 consecutive weeks from the 70th day. The tumor volumes (mm^3) were observed daily during the whole experiment.
The process of the present control group was the same as that of the experimental group, except that the zinc finger-like peptide of the experimental group was substituted with PBS buffer (100 μl) in the present control group.

[3] = test system: basal cell carcinoma (BCC) cells; test: Example 1: peptide pre-injection, then basal cell carcinoma (BCC) cell inoculation, tumor volumes; conditions: peptide 2 mM, 100 μl PBS i.v. tail vein per week for 3 weeks before BCC inoculation at both flanks; vs PBS control
Method: as §1, §2
Herein, zinc finger-like peptide with sequence shown in SEQ ID NO: 2 was injected into nude mice.
In particularly, nude mice were injected with an intravenous injection of peptide (2 mM, 100 μl phosphate-buffered saline or PBS) via tail veins per week for 3 consecutive weeks, followed by inoculating basal cell carcinoma (BCC) cells (2 million cells/100 μl PBS) at both the right and left flanks. […]

BCC cells [4] = test: Example 2: peptide pre-injection plus boost injection, BCC cell inoculation, tumor volumes; conditions: peptide 2 mM, 100 μl i.v. per week for 3 weeks before BCC inoculation; boost per week for 3 weeks 2 months later; vs H2O control
Method: as §1, §2, §3
Nude mice were injected with an intravenous injection of peptide (2 mM, 100 μl PBS) via tail veins per week for 3 consecutive weeks, followed by inoculating BCC cells (2 million cells/100 μl PBS) at both the right and left flanks. 2 months later, boost injection of peptide was carried out per week for 3 consecutive weeks. […]

BCC cells [5] = test: Example 5: expression plasmid injection, then BCC cell inoculation, tumor volumes; conditions: expression plasmid 100 μl via tail veins per week for 2 weeks before BCC inoculation; vs vector containing EGFP only
Method: as §1
The cDNA of zinc finger-like peptide was inserted into vector pCR3.1/CMV to form a zinc finger-like peptide expression plasmid, wherein the zinc finger-like peptide was connected to the c-terminal of EGFP.
In the present experimental group, the zinc finger-like peptide expression plasmid containing DNA sequence for expressing the zinc finger-like peptide (SEQ ID NO: 4) (100 μl) was injected into nude mice via tail veins per week for 2 consecutive weeks, to express zinc finger-like peptide. Then, BCC cells (2 million cells/100 μl medium) were inoculated into nude mice at both the right and left flanks. The tumor volumes (mm^3) were observed daily during the whole experiment.
The process of the present experimental group was the same as that of the experimental group 1, except that the DNA sequence shown in SEQ ID NO: 4 was substituted with DNA sequence shown in SEQ ID NO: 7. […]

## SEQ ID NO: 6, in which the fourth amino acid serine was phosphorylated: SEQ ID NO: 6 (RSSSCK) with the fourth amino acid serine phosphorylated (RSS[pS]CK)
[1]
  day on which the nude mice died: 35 days

## SEQ ID NO: 1, in which the fifth amino acid, serine was phosphorylated: SEQ ID NO: 1 (RRSSSCK) with the fifth amino acid, serine, phosphorylated (RRSS[pS]CK)
[1]
  day on which the nude mice died: 35 days

## RSSSCK [SEQ ID NO: 6, zinc finger-like peptide, called cysteine deletion]
[1]
  day on which the nude mice died: 31 days

## MSSRRSSSCKYCEQDFRAHTQKNAATPFLAN [SEQ ID NO: 2, zinc finger-like peptide, manually synthesized]
[2]; MDA-MB-435s inoculated first
  day from which tumor volumes were significantly increased: 89 days
[2]; observed on the 100th day
  maximum tumor volumes: 1000 mm^3
[2]; on the 113th day, after the maximum
  tumor volumes reduced to: 50%
[2]; vs PBS control group
  tumor cell growth terminated compared to the control group: 75%
[3]
  tumor growth (tumor volumes): inhibited the growth of skin cancer cell on nude mice

## MSSRRSSGCKYCEQD [SEQ ID NO: 5, zinc finger-like peptide with serine mutation]
BCC cells [4]
  tumor growth (tumor volumes): the therapeutic effect of the zinc finger-like peptide is decreased; also recorded: still has better treatment effect than H2O

B1: atgagcagca gaaggtcgtc ttcttgtaaa tattgtgaac aggacttccg agcacacaca cagaagaatg cggccacacc cttcctagcc aac (nucleic acid)
chain: ATGAGCAGCAGAAGGTCGTCTTCTTGTAAATATTGTGAACAGGACTTCCGAGCACACACACAGAAGAATGCGGCCACACCCTTCCTAGCCAAC
modifications: expressed or natural sequence
BCC cells [5]
  tumor growth (tumor volumes): the growth of tumor cells can be inhibited and the volume thereof can be reduced

B2: atgagcagca gaaggtcgtc tggctgtaaa tattgtgaac aggacttccg agcacacaca cagaagaatg cggccacacc cttcctagcc aac (nucleic acid)
chain: ATGAGCAGCAGAAGGTCGTCTGGCTGTAAATATTGTGAACAGGACTTCCGAGCACACACACAGAAGAATGCGGCCACACCCTTCCTAGCCAAC
modifications: chemistry not given here
BCC cells [5]
  tumor growth (tumor volumes): can slightly inhibit the growth of the tumor cells
